Source: patent US7101844B2, “Cytoplasmic transduction peptides and uses thereof” (Creagene, Inc., priority 2002, dated 2006)
Entries after “also recorded” stand apart in the source; their conditions may differ.

Key:
HeLa cells [1] = assay: Subcellular localization of CTP-β-gal by confocal scanning microscope; assay type: cell-based; details: β-galactosidase fusion protein, 100 μg/ml, 1 hr
Excerpt: To select cytoplamic transduction peptides (CTPs) of interest, HeLa cells were transduced with CTP-β-galactosidase, and then examined under the confocal scanning microscope. Before the confocal analysis, cells were stained with mouse anti-β-galactosidase antibody and 2nd antibodies conjugated with FITC (Fluorescence-iso-thio-cyanate) or with PE (phycoerythrin) together with DNA staining reagent (green fluorescence SYTO-16 DNA staining dye, Molecular Probe). First, HeLa cells (5×10^5 cells/ml) were plated onto a 6-well plate containing sterilized cover-slips and cultured overnight at 37° C. CO2 incubator. The cells were washed with PBS (pH 7.4) and 1 ml of an OPTI-MEM I medium was added, followed by treatment with candidate CTP-fused proteins (100 μg/ml). As a positive control, PTD-β-galactosidase fusion protein was employed, and as a negative control, only β-galactosidase protein was used. Following the treatment with candidate CTP-β-galactosidase fusion proteins, cells were incubated for 1 hr at 37° C. incubator. The cells were rinsed three times with PBS and fixed with 2% paraformaldehyde for 20 min at 4° C. HeLa cells fixed were washed twice with washing buffer (PBS containing 0.2% BSA and 0.02% sodium azide). To stain the cells with antibody, cells were pre-treated with 0.5% Triton X-100 (in PBS, Sigma) at 4° C. for 20 min. Cells were washed three times with washing buffer and then stained with mouse anti-β-galactosidase antibody (diluted 1:2,000, Sigma) for 1 hr at 4° C. as a primary antibody and then washed three times with washing buffer. Cells were then incubated with FITC-conjugated goat anti-mouse IgG (diluted 1:2,000, Jackson Laboratory) as a secondary antibody for 20 min at 4° C. Washed 3 times with the same washing buffer, cells were fixed on a slide glass with fluorescence mounting medium (DAKO) and the edge of slide glass was sealed with nail vanish.
Double staining was carried out with SYTO-16 DNA staining dye as follows: First, the cells were incubated with the primary antibodies under the same conditions and rinsed three times. Then, the cells were incubated at 4° C. for 20 min with PE-conjugated goat anti-mouse IgG PE (diluted 1:2,000, Jackson Laboratory). Washed three times with washing buffer, cells were incubated with SYTO-16 DNA staining dye (diluted 1:1,000, DAKO) for 20 min at 4° C. Cells were fixed and sealed on a slide glass and then examined under a confocal laser scanning microscope.
In the present experiment, LEICA TCS NT SP confocal microscope (LEICA Lasertech GmbH, Heidelverg, Germany) was employed, which was equipped with lager generator of argon (Ar) and krypton (Kr), scanning device, and filter capable of detecting FITC (510–550 nm) and PE (600–660) at independent channel. Photographs were taken by PL-APO X100 objective. For single staining, the cells were sectioned into 4-layers and fluorescence and transmission photographs were taken. For double staining, FITC, PE, and transmission photographs were taken using optimal respective filter.

HeLa cells [2] = assay: Quantitative analysis of the membrane permeability of CTP-β-gal (β-gal activity of lysates of trypsinized cells); assay type: cell-based; details: incubation for 20 hr
Experimental: For the quantitatation of the permeability of each CPP-fusion protein, HeLa cells were treated with PTD, MTS and CTP508, 509, 511, 512, 513 and 514, CPP-β-gal fusion proteins for 20 hr as described above, and the cells were trypsinized, followed by measuring the amounts of fusion protein imported into cells. Trypsin-treated cells were washed twice with 10% FBS-containing DMEM (high glucose) to inactivate any residual trypsin activity, and then washed once with 1× PBS. The cells collected by centrifugation were resuspended in a 0.9% Triton-X 100 solution, incubated for 10 min at room temperature to lyse cells, and then the supernatant of each lysate was obtained by centrifugation at 12000 rpm for 2 min. The β-gal activity of each sample was measured at 570 nm using enhanced β-gal assay kit (GTS Inc, USA) and an ELISA reader.

Substance: CTP512: CTP (2G4R8R9R), sequence YGRRARRRRRR; representative CTP used from Example 5-4 on
- cytoplasmic remaining property / subcellular localization (HeLa cells [1]): excellent cytoplamic localization property; also recorded: excellent cytoplamic remaining property; also recorded: significantly high
- cytoplasmic remaining property / subcellular localization (HeLa cells [1]; listed as CTP 512): excellent cytoplasmic remaining property
- transduction into HeLa cells (HeLa cells [2]): much higher transduction potential than either the PTD or the MTS
